Experimental data reported in publication PMC7035293, “Structural ensemble of a glutamate transporter homologue in lipid nanodisc environment” (Nature Communications, 2020).
Values belong to the compound of their own block, whether it stands above or below them.

Tests used:
GltTk = target: T1, GltTk (Thermococcus kodakarensis, UniProt Q5JID0); experiment: cryo-EM structure of the complex in lipid nanodiscs; conditions: 300 mM Na+, aspartate binding site
T1 construct: gene TK0986; C-terminal His8 tag, expressed in E. coli MC1061 (pBAD24-derived plasmid), purified apo, reconstituted in MSP2N2 lipid nanodiscs; homotrimer
T1 sequence (Q5JID0 entry or part of it): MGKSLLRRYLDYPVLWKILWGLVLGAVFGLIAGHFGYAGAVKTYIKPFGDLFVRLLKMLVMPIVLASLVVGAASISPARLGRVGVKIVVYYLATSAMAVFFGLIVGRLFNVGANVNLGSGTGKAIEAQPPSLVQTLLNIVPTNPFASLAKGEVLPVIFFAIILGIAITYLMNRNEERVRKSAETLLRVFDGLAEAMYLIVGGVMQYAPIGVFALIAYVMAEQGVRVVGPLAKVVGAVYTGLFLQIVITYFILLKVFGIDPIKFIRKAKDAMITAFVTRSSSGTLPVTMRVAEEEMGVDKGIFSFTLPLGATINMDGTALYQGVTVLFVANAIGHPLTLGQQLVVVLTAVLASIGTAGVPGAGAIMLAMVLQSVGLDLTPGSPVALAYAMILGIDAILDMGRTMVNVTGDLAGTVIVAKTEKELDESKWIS

[1] = target: glutamate transporter homologue GltTk from Thermococcus kodakarensis (Thermococcus kodakarensis) (UniProt Q5JID0); experiment: cryo-EM structure; GltTk in MSP2N2 nanodiscs (E. coli polar lipids:egg PC 3:1 w/w), 20 mM Tris-HCl pH 8.0, 300 mM NaCl; five structures: Na+-only, L-aspartate unsaturated (two structures), L-aspartate saturated, 120 uM DL-TBOA; 200 keV Talos Arctica

Compound: NC(C(=O)O)C(OCc1ccccc1)C(=O)O (racemic) [DL-TBOA]
cryo-EM structure of the complex in lipid nanodiscs (GltTk; pH 8.0, 120 uM DL-TBOA with 4.5 uM nanodiscs, competitive, outward-open state, two of three protomers occupied): The fully-outward protomers have wide open HP2 gates

Compound: N[C@@H](CC(=O)O)C(=O)O [L-aspartate]
cryo-EM structure of the complex in lipid nanodiscs (GltTk; pH 8.0, 50 uM L-aspartate with 5.6 uM nanodiscs, intermediate-outward occluded state, also sub-saturating structures 6XWO and 6XWP): density for the amino acid substrate in the binding site is observed

stoichiometry N [1]: 3
Compound: glutamate transporter homologue GltTk from Thermococcus kodakarensis (from UniProt Q5JID0 1-430) (natural protein)
